Assay results reported in ChEMBL document CHEMBL1201862, “PubChem BioAssay data set” (2004).
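Results reflect a 48-hour exposure of cells in 96-well plates to compound at five concentrations. Here, GI50 denotes the concentration required for 50% inhibition of growth.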 The source made the active and inactive calls. Rule as the data show it: active = GI50 up to about 1.1 µM and inactive = higher.

Assays:
Assay in all cases: inhibition of tumour cell growth, NCI panel, 48 h
[1] = system: HCT-15
[2] = system: Malme-3M
[3] = system: UACC-62
[4] = system: K562
[5] = system: SK-MEL-28
[6] = system: SF-539
[7] = system: RXF 393
[8] = system: SN12C
[9] = system: HOP-92
[10] = system: DMS-114
[11] = system: LXFL 529
[12] = system: MOLT-4
[13] = system: IGROV-1
[14] = system: HOP-62
[15] = system: NCI-H522
[16] = system: SNB-78
[17] = system: HCT-116
[18] = system: SF-295
[19] = system: U-251
[20] = system: HOP-18
[21] = system: SK-MEL-5
[22] = system: 786-0
[23] = system: RPMI-8226
[24] = system: KM-20L2
[25] = system: SNB-75
[26] = system: SK-OV-3
[27] = system: NCI-H226
[28] = system: A498
[29] = system: SW-620
[30] = system: ACHN
[31] = system: UO-31
[32] = system: SF-268
[33] = system: M19-MEL
[34] = system: OVCAR-8
[35] = system: COLO 205
[36] = system: CCRF-CEM
[37] = system: LOX IMVI
[38] = system: TK-10
[39] = system: DLD-1
[40] = system: EKVX
[41] = system: OVCAR-3
[42] = system: XF498
[43] = system: UACC-257
[44] = system: A549
[45] = system: NCI-H460
[46] = system: HCC 2998
[47] = system: KM12
[48] = system: HL-60
[49] = system: SNB-19
[50] = system: M14
[51] = system: OVCAR-5
[52] = system: OVCAR-4
[53] = system: SK-MEL-2
[54] = system: NCI-H23
[55] = system: HT-29
[56] = system: DMS-273
[57] = system: SR
[58] = system: CAKI-1

For `O=C(OCCCl)C1OC(n2cc(F)c(=O)[nH]c2=O)CC1O` (stereo not drawn), the GI50 [1] was > 100 µM, the GI50 [2] was > 100 µM (inactive) and the GI50 [3] was > 100 µM (inactive). For the same molecule, the GI50 [4] was > 100 µM (inactive), the GI50 [5] was > 100 µM (inactive) and the GI50 [6] was > 100 µM (inactive). The GI50 [7] was > 100 µM (inactive), the GI50 [8] was > 100 µM (inactive) and the GI50 [9] was 57.8 µM (inactive). For the same molecule, the GI50 [10] was > 100 µM (inactive), the GI50 [11] was > 100 µM (inactive) and the GI50 [12] was > 100 µM (inactive). The GI50 [13] was > 100 µM (inactive), the GI50 [14] was > 100 µM (inactive) and the GI50 [15] was > 100 µM (inactive). For the same molecule, the GI50 [16] was > 100 µM (inactive), the GI50 [17] was > 100 µM (inactive) and the GI50 [18] was > 100 µM (inactive). For the same molecule, the GI50 [19] was > 100 µM (inactive), the GI50 [20] was > 100 µM (inactive) and the GI50 [21] was > 100 µM (inactive). For the same molecule, the GI50 [22] was > 100 µM (inactive), the GI50 [23] was > 100 µM (inactive) and the GI50 [24] was > 100 µM (inactive). The GI50 [25] was > 100 µM (inactive), the GI50 [26] was > 100 µM (inactive) and the GI50 [27] was > 100 µM (inactive). The GI50 [28] was > 100 µM (inactive), the GI50 [29] was > 100 µM (inactive) and the GI50 [30] was > 100 µM (inactive). For the same molecule, the GI50 [31] was > 100 µM (inactive), the GI50 [32] was > 100 µM (inactive) and the GI50 [33] was > 100 µM (inactive). The GI50 [34] was > 100 µM (inactive), the GI50 [35] was > 100 µM (inactive) and the GI50 [36] was > 100 µM (inactive). For the same molecule, the GI50 [37] was > 100 µM (inactive), the GI50 [38] was > 100 µM (inactive) and the GI50 [39] was > 100 µM (inactive). The GI50 [40] was > 100 µM (inactive), the GI50 [41] was > 100 µM (inactive) and the GI50 [42] was > 100 µM (inactive). The GI50 [43] was > 100 µM (inactive), the GI50 [44] was > 100 µM (inactive) and the GI50 [45] was 92 µM (inactive). For the same molecule, the GI50 [46] was 27.7 µM (inactive), the GI50 [47] was > 100 µM (inactive) and the GI50 [48] was > 100 µM (inactive). The GI50 [49] was > 100 µM (inactive), the GI50 [50] was > 100 µM (inactive) and the GI50 [51] was > 100 µM (inactive). The GI50 [52] was > 100 µM (inactive), the GI50 [53] was > 100 µM (inactive) and the GI50 [54] was > 100 µM (inactive). The GI50 [55] was > 100 µM (inactive).

`CN(C)c1nc(N(C)C)n2nc(-c3ccccc3[N+](=O)[O-])nc2n1` was tested, and the GI50 [1] was 16.3 µM, the GI50 [2] was > 100 µM (inactive) and the GI50 [3] was > 100 µM (inactive). For the same molecule, the GI50 [4] was > 100 µM (inactive), the GI50 [5] was > 100 µM (inactive) and the GI50 [6] was 33 µM (inactive). The GI50 [7] was > 100 µM (inactive), the GI50 [8] was > 100 µM (inactive) and the GI50 [9] was > 100 µM (inactive). The GI50 [10] was > 100 µM (inactive), the GI50 [56] was 33.5 µM (inactive) and the GI50 [11] was 86.3 µM (inactive). For the same molecule, the GI50 [12] was > 100 µM (inactive), the GI50 [13] was > 100 µM (inactive) and the GI50 [14] was > 100 µM (inactive). The GI50 [15] was > 100 µM (inactive), the GI50 [16] was > 100 µM (inactive) and the GI50 [17] was 35.6 µM (inactive). The GI50 [18] was > 100 µM (inactive), the GI50 [19] was > 100 µM (inactive) and the GI50 [20] was > 100 µM (inactive). The GI50 [21] was > 100 µM (inactive), the GI50 [22] was 49.9 µM (inactive) and the GI50 [57] was > 100 µM (inactive). The GI50 [23] was 89.7 µM (inactive), the GI50 [24] was > 100 µM (inactive) and the GI50 [25] was > 100 µM (inactive). For the same molecule, the GI50 [26] was > 100 µM (inactive), the GI50 [27] was > 100 µM (inactive) and the GI50 [28] was > 100 µM (inactive). The GI50 [29] was 10.1 µM (inactive), the GI50 [30] was > 100 µM (inactive) and the GI50 [31] was > 100 µM (inactive). For the same molecule, the GI50 [32] was > 100 µM (inactive), the GI50 [33] was > 100 µM (inactive) and the GI50 [34] was > 100 µM (inactive). For the same molecule, the GI50 [35] was 70.1 µM (inactive), the GI50 [36] was > 100 µM (inactive) and the GI50 [37] was > 100 µM (inactive). For the same molecule, the GI50 [38] was > 100 µM (inactive), the GI50 [39] was 48.5 µM (inactive) and the GI50 [40] was > 100 µM (inactive). For the same molecule, the GI50 [41] was > 100 µM (inactive), the GI50 [42] was > 100 µM (inactive) and the GI50 [43] was > 100 µM (inactive). For the same molecule, the GI50 [44] was > 100 µM (inactive), the GI50 [45] was 78.7 µM (inactive) and the GI50 [46] was > 100 µM (inactive). The GI50 [47] was > 100 µM (inactive), the GI50 [48] was > 100 µM (inactive) and the GI50 [49] was > 100 µM (inactive). The GI50 [50] was > 100 µM (inactive), the GI50 [58] was > 100 µM (inactive) and the GI50 [51] was > 100 µM (inactive). For the same molecule, the GI50 [52] was > 100 µM (inactive), the GI50 [53] was > 100 µM (inactive) and the GI50 [54] was > 100 µM (inactive). For the same molecule, the GI50 [55] was > 100 µM (inactive).
